These are literature values, as cited in patent US6565840B1, “Monomeric compositions effective as wound closure devices” (Closure Medical Corporation, priority 1996, dated 2003).

What is called pKa is the pH at which an ionisable group is half protonated.

For the compound `CC(=O)C(C(C)=O)C(C)=O` [triacetylmethane], the pKa is 5.9.
